According to US10030027B2, “Soluble guanylate cyclase stimulators” (MERCK SHARP & DOHME CORP., priority 2015, dated 2018):

Experiments:
[1] = target: human recombinant sGC enzyme (Homo sapiens (Human), UniProt Q02108+Q02153); test: Size Exclusion Chromatography (SEC) competition binding assay using [3H] Ex-77B as the radioligand; conditions: [3H] Ex-77B radioligand, 24 hours at 37° C.
In short: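 Recombinant human sGC binding measured by competition against tritiated Ex-77B radioligand, with non-specific binding defined by 1 μM unlabeled Ex-77B.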

[2] = system: Spontaneously hypertensive rats (SHR); test: Acute efficacy in spontaneously hypertensive rats (SHR); format: in vivo, rat
Source text: Acute Efficacy in Spontaneously Hypertensive Rats (SHR)
Spontaneously hypertensive rats (SHR, male, Charles River) were implanted with DSI TA11PA-C40 telemetry device (Data Sciences, Inc., St. Paul, Minn.) under isoflurane or ketamine/metomidine anesthesia. The telemetry unit catheter was inserted into the descending aorta via the femoral artery and the telemetry device was implanted subcutaneously in the left flank area. Animals were allowed to recover from surgery for 14 days before the start of any studies. Blood pressure, heart rate, and activity signals from conscious, freely moving rats were recorded continuously for 30 seconds every 10 minutes. On the day prior to administration of compound, a single oral dose of vehicle (10% transcutol/20% Cremophor/70% water) was administered to all animals to establish baseline control data. The blood pressure lowering efficacy of compound (PO) or vehicle was evaluated following a single oral gavage. Data were collected as hourly averages, and changes in blood pressure were calculated by subtracting control baseline data on an hourly basis. Animals were maintained on normal diet with a 12 hour light-dark cycle.
Maximum peak decreases of systolic blood pressure (SBP) in SHR at a particular P.O. dose (mpk milligrams per kilogram) for the following Example compounds are provided.

sGC α1/β1 heterodimer = sGC α1/β1 heterodimer (Homo sapiens (Human), UniProt Q02108+Q02153); test: Cell-based sGC functional assay (cyclic GMP assay for sGC activator: CASA assay); design: % Activation: concentration or dose not given beside the values; conditions: CHO-K1/sGC cells; for Emax: CHO-K1, activity expressed as percentage of compound A (standard), read-out: % Activation; for EC50: inflection point, 4P fit, read-out: IP; for % Activation: activity expressed as percentage of compound A (standard)
In short: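 CHO-K1 cells stably expressing sGC α1/β1 were pre-incubated with or without 1 μM DETA-NO (30 min, 25 °C), then exposed to compounds for 1 hr at 37 °C with 0.5 mM IBMX. Intracellular cGMP was read by HTRF and expressed as a percentage of a reference heme-dependent activator's maximum.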

SMILES	Ki [1]	Category: maximum peak decrease of systolic blood pressure (SBP) in SHR ([2]; Dose P.O. 3 mpk)	Emax (sGC α1/β1 heterodimer)	EC50 (sGC α1/β1 heterodimer)	% Activation (sGC α1/β1 heterodimer)	Category: maximum peak decrease of systolic blood pressure (SBP) in SHR ([2]; Dose P.O. 1 mpk)
CC(C)(Cc1ccc(C2(C)C(=O)Nc3nc(-c4nn(CCC(F)(F)C(F)(F)F)c5ncccc45)nc(N)c32)cc1)C(=O)O (stereo not shown) [Example 9B]	0.374 nM	A (decrease in SBP in SHRs 5-25 mmHg)	118%	1370 nM		
CC1CCC(Cn2nc(-c3nc(N)c4c(n3)NC(=O)[C@@]4(C)c3ccc(CCC(=O)O)cc3)c3ccc(Cl)cc32)CC1 (single isomer, unassigned) [Example 5BA]	0.162 nM	B (decrease in SBP in SHRs 25-40 mmHg)		132 nM	76%	
CC(C)(Cc1cccc(C2(C)C(=O)Nc3nc(-c4nn(CCC(F)(F)C(F)(F)F)c5cc(Cl)ccc45)nc(N)c32)c1)C(=O)O (stereo not shown) [Example 27B, 3-(3-{4-amino-2-[6-chloro-1-(3,3,4,4,4-pentafluorobutyl)-1H-indazol-3-yl]-5-methyl-6-oxo-6,7-dihydro-5H-pyrrolo[2,3-d]pyrimidin-5-yl}phenyl)-2,2-dimethylpropanoic acid]	0.221 nM		120%	331 nM		A (decrease in SBP in SHRs 5-25 mmHg)
C[C@@]1(c2ccc(CCC(=O)O)cc2)C(=O)Nc2nc(-c3nn(CC4CCC(F)(F)CC4)c4cc(Cl)ccc34)nc(N)c21 [Example 58B, (S)-3-(4-[4-amino-2-{6-chloro-1-[(4,4-difluorocyclohexyl)methyl]-1H-indazol-3-yl}-5-methyl-6-oxo-6,7-dihydro-5H-pyrrolo[2,3-d]pyrimidin-5-yl]phenyl)propanoic acid]	0.493 nM	A (decrease in SBP in SHRs 5-25 mmHg)	65%	1130 nM		
Cc1ccc2c(-c3nc(N)c4c(n3)NC(=O)[C@@]4(C)c3ccc(CCC(=O)O)cc3)nn(Cc3ccccc3F)c2c1 [Example 59B, (S)-3-(4-{4-amino-2-[1-(2-fluorobenzyl)-6-methyl-1H-indazol-3-yl]-5-methyl-6-oxo-6,7-dihydro-5H-pyrrolo[2,3-d]pyrimidin-5-yl}phenyl)propanoic acid]	0.293 nM	A (decrease in SBP in SHRs 5-25 mmHg)	116%	858 nM		
CC(C)(C)CCCn1nc(-c2nc(N)c3c(n2)NC(=O)[C@@]3(C)c2ccc(CCC(=O)O)cc2)c2ccc(Cl)cc21 [Example 52B, (S)-3-(4-{4-amino-2-[6-chloro-1-(4,4-dimethylpentyl)-1H-indazol-3-yl]-5-methyl-6-oxo-6,7-dihydro-5H-pyrrolo[2,3-d]pyrimidin-5-yl}phenyl)propanoic acid]	0.413 nM	A (decrease in SBP in SHRs 5-25 mmHg)	109%	504 nM		
C[C@@]1(c2ccc(CCC(=O)O)cc2)C(=O)Nc2nc(-c3nn(CC45CC6CC(CC(C6)C4)C5)c4cc(Cl)ccc34)nc(N)c21 [Example 70B, (S)-3-(4-{2-[1-(adamantan-1-ylmethyl)-6-chloro-1H-indazol-3-yl]-4-amino-5-methyl-6-oxo-6,7-dihydro-5H-pyrrolo[2,3-d]pyrimidin-5-yl}phenyl)propanoic acid]		A (decrease in SBP in SHRs 5-25 mmHg)	120%	649 nM		
CC1(c2cn(C(C)(C)C(=O)O)nn2)C(=O)Nc2nc(-c3nn(CCC(F)(F)C(F)(F)F)c4cc(Cl)ccc34)nc(N)c21 (stereo not shown) [Example 30B, 2-(4-{4-amino-2-[6-chloro-1-(3,3,4,4,4-pentafluorobutyl)-1H-indazol-3-yl]-5-methyl-6-oxo-6,7-dihydro-5H-pyrrolo[2,3-d]pyrimidin-5-yl}-1H-1,2,3-triazol-1-yl)-2-methylpropanoic acid]	0.56 nM		93%	176 nM		
CC(C)(Cc1csc([C@]2(C)C(=O)Nc3nc(-c4nn(Cc5c(F)cccc5F)c5cc(Cl)ccc45)nc(N)c32)n1)C(=O)O [Example 183A, (S)-3-(2-{4-amino-2-[6-chloro-1-(2,6-difluorobenzyl)-1H-indazol-3-yl]-5-methyl-6-oxo-6,7-dihydro-5H-pyrrolo[2,3-d]pyrimidin-5-yl}-1,3-thiazol-4-yl)-2,2-dimethyl-propanoic acid]	0.076 nM		111%	88 nM		
C[C@@]1(c2ccc(CCC(=O)O)cc2)C(=O)Nc2nc(-c3nn(CCCC(F)(F)F)c4ncc(F)cc34)nc(N)c21 [Example 18B, (S)-3-(4-{4-amino-2-[5-fluoro-1-(4,4,4-trifluorobutyl)-1H-pyrazolo[3,4-b]pyridin-3-yl]-5-methyl-6-oxo-6,7-dihydro-5H-pyrrolo[2,3-d]pyrimidin-5-yl}phenyl)propanoic acid]	0.92 nM		95%	2500 nM		
CC1CCC(Cn2nc(-c3nc(N)c4c(n3)NC(=O)[C@@]4(C)c3nc(CC(C)(C)C(=O)O)cs3)c3ccc(F)cc32)CC1 (single isomer, unassigned) [Example 136AB]	0.218 nM			23 nM	71.4%	
CC(C)(Cc1coc(C2(C)C(=O)Nc3nc(-c4nn(Cc5ncccc5F)c5cc(Cl)ccc45)nc(N)c32)n1)C(=O)O (stereo not shown) [Example 184A, 3-{2-[4-amino-2-{6-chloro-1-[(3-fluoropyridin-2-yl)methyl]-1H-indazol-3-yl}-5-methyl-6-oxo-6,7-dihydro-5H-pyrrolo[2,3-d]pyrimidin-5-yl]-1,3-oxazol-4-yl}-2,2-dimethyl-propanoic acid]	0.092 nM		97.7%	230 nM		
C[C@@]1(c2ccc(CCC(=O)O)cc2)C(=O)Nc2nc(-c3nn(Cc4ccccc4F)c4cc(F)ccc34)nc(N)c21 [Example 60B, (S)-3-(4-{4-amino-2-[6-fluoro-1-(2-fluorobenzyl)-1H-indazol-3-yl]-5-methyl-6-oxo-6,7-dihydro-5H-pyrrolo[2,3-d]pyrimidin-5-yl}phenyl)propanoic acid]	0.102 nM		128%	167 nM		
CC(C)(Cn1cc(C2(C)C(=O)Nc3nc(-c4nn(CCC(F)(F)C(F)(F)F)c5cc(Cl)ccc45)nc(N)c32)nn1)C(=O)O (stereo not shown) [Example 31B, 3-(4-{4-amino-2-[6-chloro-1-(3,3,4,4,4-pentafluorobutyl)-1H-indazol-3-yl]-5-methyl-6-oxo-6,7-dihydro-5H-pyrrolo[2,3-d]pyrimidin-5-yl}-1H-1,2,3-triazol-1-yl)-2,2-dimethylpropanoic acid]	1.41 nM		130%	8330 nM		
CC1(c2nc(CCC(F)(F)C(=O)O)co2)C(=O)Nc2nc(-c3nn(Cc4cccc(F)c4)c4cc(F)ccc34)nc(N)c21 (stereo not shown) [Example 135A, 4-(2-{4-amino-2-[6-fluoro-1-(3-fluorobenzyl)-1H-indazol-3-yl]-5-methyl-6-oxo-6,7-dihydro-5H-pyrrolo[2,3-d]pyrimidin-5-yl}-1,3-oxazol-4-yl)-2,2-difluorobutanoic acid]	0.275 nM		92.9%	254 nM		
C[C@@]1(c2ccc(CCC(=O)O)cc2)C(=O)Nc2nc(-c3nn(Cc4ccccc4F)c4ccccc34)nc(N)c21 [Example 76B, (S)-3-(4-{4-Amino-2-[1-(2-fluorobenzyl)-1H-indazol-3-yl]-5-methyl-6-oxo-6,7-dihydro-5H-pyrrolo[2,3-d]pyrimidin-5-yl}phenyl)propanoic acid]		B (decrease in SBP in SHRs 25-40 mmHg)				
CC1(c2ccc(CC(=O)O)cc2)C(=O)Nc2nc(-c3nn(Cc4ccccc4F)c4ncccc34)nc(N)c21 (stereo not shown) [Example 114A, (4-{4-Amino-2-[1-(2-fluorobenzyl)-1H-pyrazolo[3,4-b]pyridin-3-yl]-5-methyl-6-oxo-6,7-dihydro-5H-pyrrolo[2,3-d]pyrimidin-5-yl}phenyl)acetic acid]	0.092 nM		108%	1340 nM		
Cc1nc([C@]2(C)C(=O)Nc3nc(-c4nn(CCC(F)(F)C(F)(F)F)c5ncccc45)nc(N)c32)sc1CC(=O)O [Example 83B, (S)-(2-{4-amino-5-methyl-6-oxo-2-[1-(3,3,4,4,4-pentafluorobutyl)-1H-pyrazolo[3,4-b]pyridin-3-yl]-6,7-dihydro-5H-pyrrolo[2,3-d]pyrimidin-5-yl}-4-methyl-1,3-thiazol-5-yl)acetic acid]	1.74 nM		80%	1420 nM		
CC(C)(CCc1coc(C2(C)C(=O)Nc3nc(-c4nn(Cc5ncccc5F)c5cc(Cl)ccc45)nc(N)c32)n1)C(=O)O (stereo not shown) [Example 207B, 4-{2-[4-amino-2-{6-chloro-1-[(3-fluoropyridin-2-yl)methyl]-1H-indazol-3-yl}-5-methyl-6-oxo-6,7-dihydro-5H-pyrrolo[2,3-d]pyrimidin-5-yl]-1,3-oxazol-4-yl}-2,2-dimethyl-butanoic acid]	0.095 nM		100%	1760 nM		
